Source: article PMC8159961, “Exploring protein hotspots by optimized fragment pharmacophores” (Nature Communications, 2021)

Key:
human 5-HT6 receptor = biological target: T1, human 5-HT6 receptor (Homo sapiens, UniProt P50406); test: GPCR radioligand binding assay, [3H]-LSD displacement, HEK293 membranes; conditions: for 5-HT6 % Inhibition by plate position: 10 µM; for %inh 5-HT6 average: average of exp_1 and exp_2; for %inh 5-HT6 corrected*: average, values below 0 and above 100% were set as 0 and 100; for %inh 5-HT6 exp_1: replicate exp_1; for %inh 5-HT6 exp_2: replicate exp_2
T1 construct: expressed in transfected cells
T1 sequence (P50406 whole entry): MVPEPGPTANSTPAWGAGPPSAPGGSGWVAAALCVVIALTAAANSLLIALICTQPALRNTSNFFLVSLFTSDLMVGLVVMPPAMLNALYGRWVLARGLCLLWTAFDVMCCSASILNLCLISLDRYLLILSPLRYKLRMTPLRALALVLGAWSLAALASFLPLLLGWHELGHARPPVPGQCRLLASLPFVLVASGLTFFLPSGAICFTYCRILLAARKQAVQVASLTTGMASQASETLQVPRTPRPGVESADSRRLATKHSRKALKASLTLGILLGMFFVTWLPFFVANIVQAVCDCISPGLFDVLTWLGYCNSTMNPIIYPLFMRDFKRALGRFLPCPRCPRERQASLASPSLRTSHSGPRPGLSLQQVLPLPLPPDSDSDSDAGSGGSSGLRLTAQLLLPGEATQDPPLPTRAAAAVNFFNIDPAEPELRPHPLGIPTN

human 5-HT1A receptor = biological target: T2, human 5-HT1A receptor (Homo sapiens, UniProt P08908); test: GPCR radioligand binding assay, [3H]-8-OH-DPAT displacement, HEK293 membranes; conditions: for %inh 5-HT1A average: average of exp_1 and exp_2; for %inh 5-HT1A corrected*: average, values below 0 and above 100% were set as 0 and 100; for %inh 5-HT1A exp_1: replicate exp_1; for %inh 5-HT1A exp_2: replicate exp_2; for 5-HT1A % Inhibition by plate position: 10 µM
T2 construct: expressed in transfected cells
T2 sequence (P08908 1-422): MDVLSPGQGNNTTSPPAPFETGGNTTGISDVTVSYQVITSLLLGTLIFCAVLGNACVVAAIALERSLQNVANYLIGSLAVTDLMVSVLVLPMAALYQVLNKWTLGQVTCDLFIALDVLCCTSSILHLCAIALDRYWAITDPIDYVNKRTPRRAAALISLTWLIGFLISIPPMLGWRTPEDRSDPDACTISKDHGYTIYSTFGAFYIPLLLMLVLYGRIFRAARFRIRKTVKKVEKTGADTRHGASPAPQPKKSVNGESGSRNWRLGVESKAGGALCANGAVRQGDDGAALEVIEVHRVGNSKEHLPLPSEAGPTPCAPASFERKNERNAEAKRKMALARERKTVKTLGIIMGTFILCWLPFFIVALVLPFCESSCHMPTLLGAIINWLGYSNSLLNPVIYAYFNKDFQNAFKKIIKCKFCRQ

human 5-HT7b receptor = biological target: T3, human 5-HT7b receptor (Homo sapiens, UniProt P34969); test: GPCR radioligand binding assay, [3H]-5-CT displacement, HEK293 membranes; conditions: for 5-HT7 % Inhibition by plate position: 10 µM; for %inh 5-HT7 average: average of exp_1 and exp_2; for %inh 5-HT7 exp_1: replicate exp_1; for %inh 5-HT7 exp_2: replicate exp_2
T3 construct: expressed in transfected cells
T3 sequence (P34969 1-432): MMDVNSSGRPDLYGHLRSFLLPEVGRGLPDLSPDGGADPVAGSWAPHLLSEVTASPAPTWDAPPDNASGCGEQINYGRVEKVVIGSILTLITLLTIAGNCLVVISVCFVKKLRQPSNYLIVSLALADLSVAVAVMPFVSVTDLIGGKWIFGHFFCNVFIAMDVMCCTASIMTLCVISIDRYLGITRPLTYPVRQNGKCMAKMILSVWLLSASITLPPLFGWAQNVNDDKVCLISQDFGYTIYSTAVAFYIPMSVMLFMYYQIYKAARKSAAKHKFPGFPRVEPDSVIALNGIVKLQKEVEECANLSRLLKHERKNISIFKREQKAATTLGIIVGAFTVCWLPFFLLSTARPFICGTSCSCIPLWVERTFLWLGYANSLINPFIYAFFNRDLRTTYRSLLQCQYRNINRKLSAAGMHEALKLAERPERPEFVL

Compound	5-HT6 % Inhibition by plate position (human 5-HT6 receptor)	%inh 5-HT6 average (human 5-HT6 receptor)	%inh 5-HT6 corrected* (human 5-HT6 receptor)	%inh 5-HT6 exp_1 (human 5-HT6 receptor)	%inh 5-HT6 exp_2 (human 5-HT6 receptor)	%inh 5-HT1A average (human 5-HT1A receptor)	%inh 5-HT1A corrected* (human 5-HT1A receptor)	%inh 5-HT1A exp_1 (human 5-HT1A receptor)	%inh 5-HT1A exp_2 (human 5-HT1A receptor)	5-HT7 % Inhibition by plate position (human 5-HT7b receptor)	%inh 5-HT7 average (human 5-HT7b receptor)	%inh 5-HT7 exp_1 (human 5-HT7b receptor)	%inh 5-HT7 exp_2 (human 5-HT7b receptor)	5-HT1A % Inhibition by plate position (human 5-HT1A receptor)
CC(=O)c1ccc2c(c1)CCCN2 [C7]	9%	9%	9%	10%	8%	2.29%	2.29%	-2%	6.6%	0%	-16%	-14%	-18%	–
Oc1nnc(-c2ccccc2)o1 [F7]	14%	14%	14%	15%	14%	-4%	–	1.6%	-10%	1%	–	-12%	14%	0%
Cc1cnc(C(F)(F)F)cn1 [B9]	32%	32%	32%	32%	33%	1.1%	1.1%	-7%	9%	11%	–	14%	7%	–
O=c1[nH]c2c(s1)CCC2 [C10]	42%	42%	42%	44%	39%	-4%	–	2.56%	-11%	0.592%	–	-6.56%	8%	0%
COC(=O)c1c(C)nc(C2CC2)[nH]c1=O [F1]	41%	41%	41%	38%	44%	16%	16%	17%	15%	23%	–	23%	22%	–
O=c1[nH]ncc2c1oc1ccccc12 [B6]	26%	26%	26%	18%	34%	-6.46%	–	-14%	0.625%	0%	-4%	3.34%	-11%	0%
O=C1CSC(Nc2ccc(F)cc2)=N1 [H10]	36%	36%	36%	37%	35%	12%	12%	10%	15%	0%	-3.55%	3.25%	-10%	–
O=C(O)c1ccc(CN2CCOCC2)cc1 [H1]	44%	44%	44%	48%	41%	5%	5%	11%	-0.56%	17%	–	11%	23%	–
N#Cc1ccc2ncsc2c1 [C12]	35%	35%	35%	39%	32%	5.41%	5.41%	11%	-0.546%	0%	-7%	-6%	-8.5%	–
CCN(CC)c1cccc(C)c1 [E4]	31%	31%	31%	31%	32%	8.49%	8.49%	13%	4%	7.56%	–	12%	2.81%	–
Cc1ccc(-c2ccc(O)cc2)cc1 [D7]	45%	45%	45%	52%	38%	-20%	–	-25%	-14%	0%	-7.45%	2.16%	-17%	0%
O=C(c1ccccc1)N1CCC(CO)CC1 [H9]	32%	32%	32%	29%	36%	11%	11%	15%	7%	12%	–	11%	13%	–
NC1CCc2ccccc21 (stereo not drawn) [B4]	16%	16%	16%	16%	17%	17%	17%	19%	16%	28%	–	28%	28%	–
Cc1ccc(CCNc2ccccc2)cn1 [H11]	0%	-0.844%	0%	7%	-9%	5%	5%	11%	-0.501%	0%	-0.222%	-13%	12%	–
Cc1nccn1Cc1cccc(C#N)c1 [F8]	41%	41%	41%	40%	42%	10%	10%	7%	13%	9%	–	14%	3.57%	–
Cn1nc(C(F)(F)F)cc1O [H6]	0%	-24%	0%	-16%	-31%	21%	21%	21%	21%	9%	–	4%	14%	–
CCCN1C(=O)CC(=O)NC1=S [D5]	49%	49%	49%	57%	41%	-8.49%	–	-9%	-8%	10%	–	13%	6%	0%
O=C(O)CC1CCC(=O)N1 (stereo not drawn) [H2]	16%	16%	16%	18%	15%	-0.447%	–	-9%	8.47%	7%	–	4.76%	9%	0%
CC(=O)c1ccc2c(c1)CNCC2 [C8]	2.55%	2.55%	2.55%	6%	-1%	-13%	–	-22%	-3.26%	4%	–	8%	0%	0%
